Usually Ki stands for the equilibrium dissociation constant of an inhibitor or competing ligand from its target. Low values mean tighter binding, high ones weaker binding.

Several values for one entry are separate records, joined by “and”; a condition that tells them apart may be missing. Equal values may be shown once.

The target in one test is Cannabinoid receptor 1 (Homo sapiens, UniProt P21554). In words: Displacement of [3H]CP-55940 from cloned human CB1 receptor. In general terms: Displacement assays read how much labelled ligand stays bound in the presence of the test substance.
Chain of Cannabinoid receptor 1 (P21554 whole entry): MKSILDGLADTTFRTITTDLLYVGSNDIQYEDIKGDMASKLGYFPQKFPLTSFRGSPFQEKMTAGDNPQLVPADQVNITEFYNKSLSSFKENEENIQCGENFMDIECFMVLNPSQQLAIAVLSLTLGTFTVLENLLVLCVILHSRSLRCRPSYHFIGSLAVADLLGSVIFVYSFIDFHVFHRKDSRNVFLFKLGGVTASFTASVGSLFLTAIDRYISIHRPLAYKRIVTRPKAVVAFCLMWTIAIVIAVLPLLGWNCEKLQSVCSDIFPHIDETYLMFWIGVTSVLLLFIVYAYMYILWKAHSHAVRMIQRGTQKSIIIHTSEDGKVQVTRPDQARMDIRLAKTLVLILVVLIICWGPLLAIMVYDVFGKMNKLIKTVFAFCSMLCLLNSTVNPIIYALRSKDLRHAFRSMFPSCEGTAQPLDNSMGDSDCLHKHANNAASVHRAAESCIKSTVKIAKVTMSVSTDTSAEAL
For a further test, the target named is Cannabinoid receptor 2 (Homo sapiens, UniProt P34972). In words: Displacement of [3H]CP-55940 from cloned human CB2 receptor.
Chain of Cannabinoid receptor 2 (P34972 whole entry): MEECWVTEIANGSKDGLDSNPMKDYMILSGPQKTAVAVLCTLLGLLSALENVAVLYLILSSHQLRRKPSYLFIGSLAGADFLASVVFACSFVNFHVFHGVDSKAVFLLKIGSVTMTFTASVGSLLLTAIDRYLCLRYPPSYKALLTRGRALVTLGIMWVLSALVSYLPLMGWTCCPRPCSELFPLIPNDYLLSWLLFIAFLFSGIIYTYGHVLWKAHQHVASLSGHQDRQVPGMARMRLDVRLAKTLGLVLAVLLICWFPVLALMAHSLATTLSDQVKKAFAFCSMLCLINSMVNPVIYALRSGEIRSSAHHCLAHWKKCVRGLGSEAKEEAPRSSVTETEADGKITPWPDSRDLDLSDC
Test [1] deals with Cannabinoid receptor (Homo sapiens) (UniProt P34972+P21554). In words: Selectivity for human CB2 receptor over human CB1 receptor. The test is classed as protein assay.
Chain of Cannabinoid receptor (Homo sapiens) (P21554 whole entry, looked up): as the sequence (P21554 whole entry) above
Chain of Cannabinoid receptor (Homo sapiens) (P34972 whole entry, looked up): as the sequence (P34972 whole entry) above

`CCCCCCC(C)(C)c1ccc(-c2cc(C)cc(C)c2)c(C(=O)O)c1`: the Ki at Cannabinoid receptor 1 and at Cannabinoid receptor 2 was above 1000 nM throughout.

`CCCCCCC(C)(C)c1ccc(-c2cccc(C(=O)O)c2)c(O)c1`: the Ki at Cannabinoid receptor 1 and on Cannabinoid receptor 2 was above 1000 nM throughout.

Take `COC(=O)CCCCC(C)(C)c1ccc(-c2cc(C)cc(C)c2)c(O)c1`: the Ki at Cannabinoid receptor 1 was determined as 24 nM; on Cannabinoid receptor 2, 14 nM. Also, in test [1], the Ratio Ki amounted to 2.

Take `Cc1cc(C)cc(-c2ccc(C(C)(C)CCCO)cc2O)c1`: the figures for the Ki on Cannabinoid receptor 1 and at Cannabinoid receptor 2 were 1100 nM and 56 nM, respectively. Further, in test [1], the Ratio Ki came to 20.

Turning to `CCCCCCC(C)(C)c1ccc(-c2cc(C)cc(C)c2)c(C(=O)OC)c1`, the Ratio Ki in test [1] was 2 and 1.

On to `CCCCCCC(C)(C)c1ccc(-c2cc(C)cc(C)c2)c(C(=O)NC(C)C)c1`, for which the Ki at Cannabinoid receptor 1 and on Cannabinoid receptor 2 was above 1000 nM each time.

On to `CCCCCCC(C)(C)c1ccc(-c2cccc(OC)c2)c(O)c1`, for which the Ki on Cannabinoid receptor 1 came to 91 nM; on Cannabinoid receptor 2 it was 580 nM. In addition, the Ratio Ki in test [1] is 0.2.

As for `CCCCCCC(C)(C)c1ccc(-c2cc(C)cc(C)c2)c(OC)c1`, the inhibition constant Ki on Cannabinoid receptor 1 was found to be 320 nM; at Cannabinoid receptor 2 it was 34 nM. For the same compound, the Ratio Ki in test [1] was determined as 9.

Take `CCCCCCC(C)(C)c1ccc(-c2cccnc2)c(O)c1`: the Ki on Cannabinoid receptor 1 stood at 23 nM; on Cannabinoid receptor 2 it was 20 nM. Moreover, in test [1], the Ratio Ki amounted to 1.

As for `CCCCCCC(C)(C)c1ccc(-c2cccc(C)c2C)c(O)c1`, the results for the Ki at Cannabinoid receptor 1 and on Cannabinoid receptor 2 were 49 nM and 20 nM, respectively. Moreover, in test [1], the Ratio Ki was 2.

Regarding `CCCCCCC(C)(C)c1ccc(-c2cc(C)cc(C)c2)cc1`, at Cannabinoid receptor 1, the Ki is above 30000 nM. The Ratio Ki in test [1] was above 10.

Turning to `CCCCCCC(C)(C)c1ccc(-c2cc(C)cc(C)c2)c(COC(=O)CN2CCOCC2)c1`, the Ki worked out at 370 nM at Cannabinoid receptor 1 and 0.81 nM at Cannabinoid receptor 2. The Ratio Ki in test [1] was 500.

With `COC(=O)CCC(C)(C)c1ccc(-c2cc(C)cc(C)c2)c(O)c1`, the inhibition constant Ki at Cannabinoid receptor 1 worked out at 120 nM; at Cannabinoid receptor 2, 5.6 nM. The Ratio Ki in test [1] came to 20.

Turning to `CCCCCCC1(c2ccc(-c3cc(C)cc(C)c3)c(O)c2)CCCCC1`, the Ki stood at 1.8 nM at Cannabinoid receptor 1 and 1.7 nM on Cannabinoid receptor 2. In addition, the Ratio Ki in test [1] amounted to 1.

Regarding `COC(=O)C(C)(C)c1ccc(-c2cc(C)cc(C)c2)c(O)c1`, the Ki at Cannabinoid receptor 1 was 160 nM; at Cannabinoid receptor 2, 16 nM. The Ratio Ki in test [1] turned out to be 10.

Turning to `CCCCCCC(C)(C)c1ccc(-c2c(C)cccc2C)c(O)c1`, the values for the Ki on Cannabinoid receptor 1 and on Cannabinoid receptor 2 were 1.7 nM and 18 nM, respectively. Besides, in test [1], the Ratio Ki stood at 0.1.

For the compound `CCCCCCC(C)(C)c1ccc(-c2cc(C)ccc2C)c(O)c1`, the Ki was determined as 4.6 nM at Cannabinoid receptor 1 and 6.6 nM on Cannabinoid receptor 2. Also, the Ratio Ki in test [1] was found to be 0.7.

Turning to `CCCCCCC1(c2ccc(-c3cc(C)cc(C)c3)c(O)c2)CC1`, the Ki on Cannabinoid receptor 1 was found to be 13 nM; at Cannabinoid receptor 2 it was 55 nM. Also, the Ratio Ki in test [1] was determined as 0.2.

Turning to `Cc1cc(C)cc(-c2ccc(C(C)(C)C(=O)O)cc2O)c1`, the Ki at Cannabinoid receptor 1 and on Cannabinoid receptor 2 was above 1000 nM throughout.

Turning to `CNC(=O)CCCCC(C)(C)c1ccc(-c2cc(C)cc(C)c2)c(O)c1`, the Ki turned out to be 96 nM at Cannabinoid receptor 1 and 39 nM on Cannabinoid receptor 2. Also, in test [1], the Ratio Ki was determined as 2.

As for `CCCCCCC(C)(C)c1ccc(-c2cc(C)cc(C)c2)c(CN2CCOCC2)c1`, the Ki was 3900 nM at Cannabinoid receptor 1 and 660 nM on Cannabinoid receptor 2. Also, in test [1], the Ratio Ki is 6.

With `CCCCCCC(C)(C)c1ccc(-c2cc(C)cc(C)c2)c(N)c1`, the Ki at Cannabinoid receptor 1 amounted to 80 nM; on Cannabinoid receptor 2 it was 51 nM. Besides, in test [1], the Ratio Ki was 2.

Turning to `CCCCCCC(C)(C)c1ccc(-c2ccccc2N)c(O)c1`, the Ki on Cannabinoid receptor 1 was found to be 5.2 nM; at Cannabinoid receptor 2, 17 nM. For the same compound, the Ratio Ki in test [1] stood at 0.3.

Turning to `CCCCCCC(C)(C)c1ccc(-c2ccc(C#N)cc2)c(O)c1`, the Ki at Cannabinoid receptor 1 and on Cannabinoid receptor 2 was above 1000 nM in each case.

For `CCCCCCC(C)(C)c1ccc(-c2cc(C)cc(C)c2)c(O)c1`, the Ki was found to be 2.7 nM on Cannabinoid receptor 1 and 2.3 nM at Cannabinoid receptor 2. Also, in test [1], the Ratio Ki came out at 1.

On to `CCCCCCC(C)(C)c1ccc(-c2ccc(OC)c(OC)c2)c(O)c1`, for which the Ki at Cannabinoid receptor 1 worked out at 1400 nM; on Cannabinoid receptor 2 it was 1700 nM. Moreover, the Ratio Ki in test [1] is 0.8.

Consider `CNC(=O)CCC(C)(C)c1ccc(-c2cc(C)cc(C)c2)c(O)c1`, for which the inhibition constant Ki on Cannabinoid receptor 1 is 840 nM; on Cannabinoid receptor 2, 140 nM. For the same compound, the Ratio Ki in test [1] is 6.

Take `CCCCCCC(C)(C)c1ccc(-c2cc(C)cc(C)c2)c(CO)c1`: the Ki on Cannabinoid receptor 1 was found to be 360 nM; at Cannabinoid receptor 2, 480 nM. Further, the Ratio Ki in test [1] was determined as 0.8.

For the compound `Cc1cc(C)cc(-c2ccc(C(C)(C)CCCCC(=O)O)cc2O)c1`, the Ki on Cannabinoid receptor 1 and on Cannabinoid receptor 2 was above 1000 nM throughout.

In the case of `CNC(=O)C(C)(C)c1ccc(-c2cc(C)cc(C)c2)c(O)c1`, the Ki on Cannabinoid receptor 1 and on Cannabinoid receptor 2 was above 1000 nM throughout.

Turning to `Cc1cc(C)cc(-c2ccc(C(C)(C)CCCCCO)cc2O)c1`, the results for the Ki on Cannabinoid receptor 1 and on Cannabinoid receptor 2 were 39 nM and 3.6 nM, respectively. For the same compound, the Ratio Ki in test [1] turned out to be 10.

In the case of `Cc1cc(C)cc(-c2ccc(C(C)(C)CO)cc2O)c1`, the Ki on Cannabinoid receptor 1 turned out to be 2200 nM; on Cannabinoid receptor 2, 600 nM. For the same compound, in test [1], the Ratio Ki was 4.

For `CCCCCCC(C)(C)c1ccc(-c2cccc(OC)c2OC)c(O)c1`, the Ki on Cannabinoid receptor 1 was 34 nM; on Cannabinoid receptor 2, 7.8 nM. For the same compound, in test [1], the Ratio Ki came to 4.

On to `CCCCCCC(C)(C)c1ccc(-c2ccccc2OC)c(O)c1`, for which the Ki at Cannabinoid receptor 1 was 1.7 nM; on Cannabinoid receptor 2, 1 nM. Also, the Ratio Ki in test [1] was found to be 2.

As for `CCCCCCC(C)(C)c1ccc(-c2cc(C)cc(C)c2)c(C(N)=O)c1`, the values for the Ki on Cannabinoid receptor 1 and at Cannabinoid receptor 2 were 370 nM and 320 nM, respectively. Besides, the Ratio Ki in test [1] was determined as 1.

Take `CCCCCCC(C)(C)c1ccc(-c2cc(C)cc(C)c2)c(CN)c1`: the Ki on Cannabinoid receptor 1 is 1500 nM; at Cannabinoid receptor 2, 380 nM. The Ratio Ki in test [1] worked out at 4.

On to `CCCCCCC(C)(C)c1ccc(-c2ccc(N)cc2)c(O)c1`, for which the Ki on Cannabinoid receptor 1 stood at 320 nM; on Cannabinoid receptor 2, 1000 nM. Moreover, the Ratio Ki in test [1] came to 0.3.

Regarding `CCCCCCC1(c2ccc(-c3cc(C)cc(C)c3)c(O)c2)CCCC1`, the Ki stood at 2.9 nM at Cannabinoid receptor 1 and 5.5 nM at Cannabinoid receptor 2. In test [1], the Ratio Ki was found to be 0.5.

Regarding `CCCCCCC(C)(C)c1ccc(-c2cccc(C#N)c2)c(O)c1`, the results for the Ki on Cannabinoid receptor 1 and at Cannabinoid receptor 2 were 27 nM and 45 nM, respectively. For the same compound, in test [1], the Ratio Ki was determined as 0.6.

With `CCCCCCC(C)(C)c1ccc(-c2cccc(N)c2)c(O)c1`, the values for the Ki on Cannabinoid receptor 1 and at Cannabinoid receptor 2 were 15 nM and 44 nM, respectively. For the same compound, the Ratio Ki in test [1] was 0.3.

On to `CCCCCCC(C)(C)c1ccc(-c2ccc(C)c(C)c2)c(O)c1`, for which the Ki on Cannabinoid receptor 1 came to 600 nM; on Cannabinoid receptor 2, 830 nM. Also, the Ratio Ki in test [1] came out at 0.7.

The values are drawn from ChEMBL document CHEMBL1148889, “Biaryl cannabinoid mimetics--synthesis and structure-activity relationship” (Bioorg Med Chem Lett, 2007).
